The values below come from publication PMC12475274, “Harnessing indole scaffolds to identify small-molecule IRE1α inhibitors modulating XBP1 mRNA splicing” (Nature Communications, 2025).

The test system of one experiment is IRE1α. The conditions noted are these: Fig. 1b; read-out: IC50 of reported IRE1α inhibitor; cited from earlier work.
Experiment [1] concerns the target T1, dephosphorylated IRE1α (547–977) (Homo sapiens, UniProt O75460).
T1 construct: Human IRE1α kinase and RNase domain (residues 547–977) was subcloned into pLIB plasmid; His tag (with TEV cleavage site) (N, cleaved yes); made in house; host or cells: Sf9 insect cells, baculovirus (Bac-to-Bac)
Description: FRET-based IRE1α RNase activity assay, dephosphorylated IRE1α. It is filed as biochemical. The gist of the method: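 Dephosphorylated human IRE1α (residues 547–977, Sf9-expressed, λ-phosphatase treated), 40 nM, preincubated 30 min with compound at room temperature, then 100 nM FAM/BHQ1 XBP1 RNA added in HEPES pH 7.5 buffer. Fluorescence (485/535 nm) read kinetically for 1 h; inhibition from linear-phase slopes versus DMSO, fitted to IC50.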

Experiment [2] has as its target T2, p-IRE1α dimerization and oligomerization (Homo sapiens, UniProt O75460).
T2 construct: Human IRE1α kinase and RNase domain (residues 547–977) was subcloned into pLIB plasmid; His tag (with TEV cleavage site) (N, cleaved yes); made in house; host or cells: Sf9 insect cells, baculovirus (Bac-to-Bac)
Description: DSS cross-linking assay with mass photometry. The conditions noted are these: 100 μM compound, DSS crosslinking. As to the method: Phosphorylated IRE1α (p-IRE1α) and compounds were incubated 30 min at room temperature, with a final concentration of 2 μM p-IRE1α and 100 μM of the indicated compound, in a buffer containing 20 mM HEPES, pH 7.5, 50 mM KOAc, 1 mM MgOAc2, 1 mM DTT, 0.05% v/v TritonX-100, in a total reaction volume of 20 μL. After incubation, DSS (disuccinimidyl suberate, Thermo Fisher, A39267) was added to the reaction at a final concentration of 250 μM to induce crosslinking at room temperature for 1 h. Tris (pH 7.5) was added to a final concentration of 50 mM to stop the reaction. Samples were further measured with a mass photometry instrument (Refeyn Ltd). The PBS buffer was used for the mass photometry measurement. The instrument was calibrated with BSA and TG protein mixture in PBS. Samples were diluted to a protein concentration of 100 nM with buffer before measurement. Then, 18 μL PBS buffer was added to the center of the gasket on the coverslips to check and find the focus. Afterward, 2 μL of the diluted sample was added, mixed, and measured. Data were analyzed using Discover MP software, for each sample, results from 3 individual measurements were merged.

For experiment [3], the target named is T3, phosphorylated IRE1α (p-IRE1α) (Homo sapiens, UniProt O75460).
T3 construct: Human IRE1α kinase and RNase domain (residues 547–977) was subcloned into pLIB plasmid; His tag (with TEV cleavage site) (N, cleaved yes); made in house; host or cells: Sf9 insect cells, baculovirus (Bac-to-Bac)
T3 sequence (O75460 547-977): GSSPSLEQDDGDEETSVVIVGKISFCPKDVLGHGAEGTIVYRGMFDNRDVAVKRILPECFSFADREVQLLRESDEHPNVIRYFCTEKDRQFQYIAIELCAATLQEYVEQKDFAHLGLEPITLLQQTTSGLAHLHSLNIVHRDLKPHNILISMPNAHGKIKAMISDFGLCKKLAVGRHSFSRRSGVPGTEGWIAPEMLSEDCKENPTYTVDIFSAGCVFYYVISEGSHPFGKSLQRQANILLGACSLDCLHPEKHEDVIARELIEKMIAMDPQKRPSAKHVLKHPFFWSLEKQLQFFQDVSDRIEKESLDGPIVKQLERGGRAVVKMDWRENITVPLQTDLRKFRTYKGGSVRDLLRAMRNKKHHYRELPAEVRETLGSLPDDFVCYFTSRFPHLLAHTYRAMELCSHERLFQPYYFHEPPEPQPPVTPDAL
Put plainly: FRET-based IRE1α RNase activity assay, phosphorylated IRE1α. It is filed as biochemical. The gist of the method: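 Sf9-expressed IRE1α kinase-RNase domain (residues 547–977), fully phosphorylated fraction, 4 nM, preincubated with compound 30 min at RT, then 200 nM FAM/BHQ1 XBP1 RNA added in HEPES pH 7.5 buffer. Fluorescence (ex 485/em 535 nm) read kinetically for 1 h at RT; inhibition from linear slopes, IC50 by concentration-response fit.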

Experiment [4] relates to IRE1α transcription level in HT-29 cells. Put plainly: RT-qPCR of IRE1α transcription level, HT-29. It is filed as cell-based, human. The conditions noted are these: HT-29. As to the method: (§1) A549 cells, HCT 116 cells, and HT-29 cells were collected and seeded in 6-well plates at a density of 5 × 10^5 cells per well and cultured overnight to attach, then treated with compound or DMSO for 2 h, then 0.5 μg/mL final concentration of tunicamycin (Tm, MP Biomedi, 0215002805) were added to induce the ER stress for 2 h. After treatment, total RNA was purified using an RNeasy mini kit (Qiagen, 74106). 500 ng of total RNA was used for reverse transcription using the High-Capacity cDNA Reverse Transcription Kits (Thermo Fisher, 4368814). cDNA was diluted 1: 5 using RNase-free water, and 1 μL CDNA was used for each qPCR reaction. The qPCR was performed using PowerUp™ SYBR™ Green Master Mix (Thermo Fisher, A25742) with 10 µL reaction volume using Bio-Rad CFX96 Real-Time PCR Detection System following the standard cycling mode (primer Tm ≥ 60 °C) on the manufacturer’s protocol. Data was analyzed using the 2^- ΔΔCt method. The primers used are listed in Supplementary Table S3. The inhibition % was calculated by using the equation: inhibition% = 100× (normalized Tm control - normalized of the sample)/(normalized Tm control - normalized DMSO control). Tm control: Cells treated with tunicamycin; DMSO control: Cells treated with DMSO only.

In experiment [5] the test system is XBP1 mRNA splicing in HT-29 cells. Put plainly: RT-qPCR of ER stress-induced XBP1 mRNA splicing, HT-29. It is filed as cell-based, human. The following applies: HT-29. As to the method:
as §1

In experiment [6] the test system is IRE1α transcription level in HCT 116 cells. Put plainly: RT-qPCR of IRE1α transcription level, HCT 116. It is filed as cell-based, human. The following applies: HCT116. As for the experimental part:
as §1

The test system of experiment [7] is XBP1 mRNA splicing in HCT 116 cells. Put plainly: RT-qPCR of ER stress-induced XBP1 mRNA splicing, HCT 116. The following applies: HCT116. It is filed as cell-based, human. As for the experimental part:
as §1

Experiment [8] relates to IRE1α transcription level in A549 cells. Put plainly: RT-qPCR of IRE1α transcription level, A549. It is filed as cell-based, human. The following applies: A549. As to the method:
as §1

Experiment [9] deals with XBP1 mRNA splicing in A549 cells. Description: RT-qPCR of ER stress-induced XBP1 mRNA splicing, A549. The following applies: Fig. 7c, 0.5μg/mL Tm, individual replicates. It is filed as cell-based, human. As for the experimental part:
as §1

Where “and” joins values, the source holds several entries; their conditions need not be identical. Identical values can stand only once.

T2 sequence (O75460 547-977): as above
T1 sequence (O75460 547-977): as above

Consider `Cc1cc(=O)oc2c(C=O)c(O)ccc12` [Compound 4μ8c], for which, in the experiment on IRE1α, the half-maximal inhibitory concentration (IC50) is 76 nM.
As to `CN[C@@H]1C[C@H]2O[C@@](C)([C@@H]1OC)n1c3ccccc3c3c4c(c5c6ccccc6n2c5c31)C(=O)NC4` [STS, staurosporine, reference compound], the “effect on IRE1α RNase activity in the FRET assay” value in experiment [1] is reported as “activated the RNase activity”. The “effect on p-IRE1α dimerization/oligomerization” value in experiment [2] was “did not affect the dimerization and oligomerization”. Besides, in [3], the “effect on p-IRE1α RNase activity in the FRET assay” value is given as “did not affect the RNase activity”.
For `Cc1ccc(C)c(NC(=O)NC(C)CCc2ccc(O)cc2)c1` (stereo not drawn) [Compound Z4P], in the experiment with IRE1α, the IC50 is 3140 nM.
For `CCOC(=O)CCc1c(C)n(C(=O)c2ccccc2)c2ccc(Br)cc12` [IA105], the “Relative IRE1α/Actin” value was 1.012 and 1.008 and 1.050 and 0.980 in experiment [4] (0.003 μM); 0.917 and 0.954 and 1.053 and 0.909 in [4] (0.009 μM); 1.104 and 0.811 and 1.025 and 1.043 in experiment [4] (0.027 μM); 0.794 and 0.825 and 1.037 and 0.844 in experiment [4] (0.082 μM); 0.885 and 0.861 and 0.831 and 0.823 in experiment [4] (0.247 μM); 0.783 and 0.766 and 0.908 and 0.750 in experiment [4] (0.741 μM). For the same compound, the “Relative IRE1α/Actin” value in [4] (2.22 μM) was 0.956 and 0.812 and 1.017 and 0.944; in [4] (6.67 μM), 0.712 and 0.683 and 0.754 and 0.735; in [4] (20 μM) it was 1.089 and 1.044 and 0.863 and 0.952; in experiment [6] (0.009 μM), 0.982 and 0.954 and 1.279 and 1.057; in experiment [6] (0.027 μM) it was 1.271 and 1.075 and 1.281 and 1.112; in experiment [6] (0.082 μM), 0.845 and 0.871 and 0.924 and 0.835. The “Relative IRE1α/Actin” value was 0.966 and 1.085 and 1.076 and 0.890 in [6] (0.247 μM); 0.990 and 1.042 and 1.123 and 0.879 in experiment [6] (0.741 μM); 1.133 and 1.010 and 1.231 and 1.072 in experiment [6] (2.22 μM); 1.059 and 0.972 and 1.144 and 0.971 in experiment [6] (6.67 μM); 1.034 and 0.915 and 0.978 and 0.882 in experiment [6] (20 μM); 1.097 and 0.928 and 1.209 and 0.916 in experiment [8] (0.009 μM). In addition, the “Relative IRE1α/Actin” value in [8] (0.027 μM) is 1.090 and 0.987 and 1.064 and 0.939; in experiment [8] (0.082 μM) it was 1.050 and 1.155 and 1.127 and 1.034; in experiment [8] (0.247 μM), 1.053 and 1.161 and 1.037 and 0.961; in [8] (0.741 μM), 0.957 and 1.053 and 0.856 and 0.910; in experiment [8] (2.22 μM) it was 1.022 and 0.873 and 1.063 and 1.025; in [8] (6.67 μM) it was 0.890 and 0.939 and 0.992 and 0.722. Also, the “Relative IRE1α/Actin” value in experiment [8] (20 μM) was 1.131 and 1.096 and 0.934 and 0.949. Besides, the “Relative XBP1s/Actin” value was 11.684 and 10.815 and 12.821 and 10.854 in [5] (0.003 μM); 11.469 and 10.431 and 11.317 and 10.144 in [5] (0.009 μM); 12.267 and 11.074 and 12.013 and 10.900 in experiment [5] (0.027 μM); 8.652 and 8.438 and 8.782 and 8.518 in experiment [5] (0.082 μM); 4.629 and 4.592 and 4.962 and 3.379 in [5] (0.247 μM); 1.283 and 1.309 and 1.516 and 1.277 in experiment [5] (0.741 μM). Also, the “Relative XBP1s/Actin” value in experiment [5] (2.22 μM) was 1.103 and 1.024 and 1.015 and 0.976; in experiment [5] (6.67 μM) it was 0.958 and 0.872 and 0.904 and 0.841; in [5] (20 μM), 1.096 and 1.163 and 1.053 and 0.889; in experiment [7] (0.009 μM), 5.428 and 5.195 and 5.7981 and 4.548; in experiment [7] (0.027 μM), 5.989 and 4.76 and 5.372 and 4.813; in [7] (0.082 μM) it was 5.025 and 4.655 and 4.826 and 4.338. Also, the “Relative XBP1s/Actin” value is 4.351 and 4.263 and 4.713 and 3.571 in [7] (0.247 μM); 2.654 and 2.493 and 2.725 and 2.232 in [7] (0.741 μM); 1.206 and 0.9713 and 1.3073 and 1.15 in experiment [7] (2.22 μM); 1.256 and 1.21 and 1.297 and 1.076 in [7] (6.67 μM); 1.065 and 0.9931 and 0.9536 and 0.8918 in experiment [7] (20 μM); 2.671 and 2.32 and 2.971 and 2.381 in experiment [9] (0.009 μM). For the same compound, the “Relative XBP1s/Actin” value in experiment [9] (0.027 μM) is 2.362 and 2.303 and 2.482 and 2.4563; in experiment [9] (0.082 μM) it was 2.039 and 2.057 and 2.192 and 2.023; in experiment [9] (0.247 μM), 1.808 and 1.675 and 1.769 and 1.486; in experiment [9] (0.741 μM), 1.216 and 1.256 and 1.279 and 1.145; in experiment [9] (2.22 μM), 1.073 and 0.792 and 1.044 and 0.8663; in [9] (6.67 μM) it was 1.0995 and 1.154 and 1.208 and 1.113. Also, the “Relative XBP1s/Actin” value in experiment [9] (20 μM) is 1.054 and 1.019 and 1.028 and 0.9077.
As to `COc1cc2c(C)c(CC(=O)N3CCOCC3)c(=O)oc2c(C=O)c1O` [MCK8866], the IC50 with IRE1α was 390 nM.
As to `O=S(=O)(N=Cc1c(O)ccc2ccccc12)c1cccs1` [STF-083010], in the experiment with IRE1α, the IC50 is 25000 nM.
Turning to `CC1(c2nc(-c3ccc(NC(=O)Nc4cccc(F)c4)c4ccccc34)c3c(N)nccn23)CC1` [KIRA7], in the experiment with IRE1α, the IC50 is 110 nM.
Turning to `CN1CCC(CNc2cc(Cl)nn3c(-c4cc5nc(Nc6ccccc6)[nH]c5cc4F)cnc23)CC1` [Compound 31], the IC50 in the experiment on IRE1α was 80 nM.
Take `COCCOCCc1c(C)c2cc(OC)c(O)c(C=O)c2oc1=O` [MCK9989]: the IC50 with IRE1α is 290 nM.
